Read-outs that look alike come from different tables or passages of the source. Where only a bound is given, the exact number is not on record here.

Experiment [1] deals with NCI-H358 cells (K-Ras G12C). As to the kind of experiment: Potency assay: pERK in NCI-H358 cells. The class given is cell-based, human. As for the experimental part: The purpose of this assay is to measure the ability of test compounds to inhibit K-Ras in cells. […] This procedure measures a decrease in cellular pERK in response to test compounds.
NCI-H358 cells were grown and maintained using media and procedures recommended by the ATCC. On the day prior to compound addition, cells were plated in 384-well cell culture plates (40 μl/well) and grown overnight in a 37° C., 5% CO2 incubator. Test compounds were prepared in 10, 3-fold dilutions in DMSO, with a high concentration of 10 mM. On the day of assay, 40 nL of test compound was added to each well of cell culture plate using an Echo550 liquid handler (LabCyte®). Concentrations of test compound were tested in duplicate. After compound addition, cells were incubated 4 hours at 37° C., 5% CO2. Following incubation, culture medium was removed and cells were washed once with phosphate buffered saline.
In some experiments, cellular pERK level was determined using the AlphaLISA SureFire Ultra p-ERK1/2 Assay Kit (PerkinElmer). Cells were lysed in 25 μL lysis buffer, with shaking at 600 RPM at room temperature. […] After a 2-hour incubation in the dark, 5 μL donor mix was added, plate was sealed, and incubated 2 hours at room temperature. Signal was read on an Envision plate reader (PerkinElmer) using standard AlphaLISA settings. Analysis of raw data was carried out in Excel (Microsoft) and Prism (GraphPad). Signal was plotted vs. the decadal logarithm of compound concentration, and IC50 was determined by fitting a 4-parameter sigmoidal concentration response model.
In other experiments, cellular pERK was determined by In-Cell Western. […] Fixed cells were washed 4 times for 5 minutes with TBS containing 0.1% Triton X-100 (TBST) and then blocked with 100 μL Odyssey blocking buffer (LI-COR) for 60 minutes at room temperature. […] Cells were washed 4 times for 5 minutes with TBST. Secondary antibody (IR-800CW rabbit, LI-COR, diluted 1:800) and DNA stain DRAQS (LI-COR, diluted 1:2000) were added and incubated 1-2 hours at room temperature. Cells were washed 4 times for 5 minutes with TBST. Plates were scanned on a Li-COR Odyssey CLx Imager. Analysis of raw data was carried out in Excel (Microsoft) and Prism (Graph Pad). Signal was plotted vs. the decadal logarithm of compound concentration, and IC50 was determined by fitting a 4-parameter sigmoidal concentration response model.

In the next experiment the test system is NCI-H358 (K-Ras G12C). As to the kind of experiment: CellTiter-Glo cell viability assay, NCI-H358. The class given is cell-based, human. Conditions: NCI-H358, 5-day treatment, class symbols, read-out: Additional H358 Cell Viability assay data (K-Ras G12C, IC50). As for the experimental part: Note—The following protocol describes a procedure for monitoring cell viability of K-Ras mutant cancer cell lines in response to a compound of the invention. Other RAS isoforms may be employed, though the number of cells to be seeded will vary based on cell line used.
Test compounds (132.5 nL) were directly dispensed into the assay plates containing cells. […] On day 5, assay plates and their contents were equilibrated to room temperature for approximately 30 minutes. […] Luminescence was measured using the PerkinElmer Enspire. Data were normalized by the following: (Sample signal/Avg. DMSO)*100. The data were fit using a four-parameter logistic fit.
In general terms: Cellular ATP, detected with luciferase, serves as a proxy for viable cell number.

The next experiment concerns the target KRAS G12S (Homo sapiens (Human), UniProt P01116+P62937, G12S). Kind of experiment: Ras-Raf (BRAF RBD) disruption / FRET / MOA assay, KRAS G12S. The class given is biochemical. The following applies: Ras-Raf disruption/FRET/MOA assay; class symbols; read-out: KRAS G12S FRET data IC50. As for the experimental part:
(§1) The purpose of this biochemical assay is to measure the ability of test compounds to facilitate ternary complex formation between a nucleotide-loaded Ras isoform and cyclophilin A; the resulting ternary complex disrupts binding to a BRAF^RBD construct, inhibiting Ras signaling through a RAF effector.
(§2) Compound is present in plate wells as a 10-point 3-fold dilution series starting at a final concentration of 30 μM. After incubation at 25° C. for 3 hours, a mixture of Anti-His Eu-W1024 and anti-GST allophycocyanin is then added to assay sample wells at final concentrations of 10 nM and 50 nM, respectively, and the reaction incubated for an additional 1.5 hours. […] Compounds that facilitate disruption of a Ras:RAF complex are identified as those eliciting a decrease in the TR-FRET ratio relative to DMSO control wells.
(§3) This protocol may also be executed substituting other Ras proteins or nucleotides.
(§4) The purpose of this biochemical assay was to measure the ability of test compounds to facilitate ternary complex formation between a nucleotide-loaded K-Ras isoform and Cyclophilin A; the resulting ternary complex disrupts binding to a BRAF^RBD construct, inhibiting K-Ras signaling through a RAF effector. Data is reported as IC50 values.
(§5) Compound was present in plate wells as a 10-point 3-fold dilution series starting at a final concentration of 30 μM. After incubation at 25° C. for 3 hours, a mixture of Anti-His Eu-W1024 and anti-GST allophycocyanin was then added to assay sample wells at final concentrations of 10 nM and 50 nM, respectively, and the reaction incubated for an additional 1.5 hours. […] Compounds that facilitate disruption of a K-Ras:RAF complex were identified as those eliciting a decrease in the TR-FRET ratio relative to DMSO control wells.

The target in another experiment is KRAS G12D (Homo sapiens (Human), UniProt P01116+P62937, G12D). Kind of experiment: Ras-Raf (BRAF RBD) disruption / FRET / MOA assay, KRAS G12D. The class given is biochemical. Conditions: Ras-Raf disruption/FRET/MOA assay; class symbols; read-out: KRAS G12D FRET data IC50. As to the method: as §1, §2, §3, §4, §5
Sequence of KRAS G12D (P01116-2 other isoform, or with tags, fused parts or gaps G12D): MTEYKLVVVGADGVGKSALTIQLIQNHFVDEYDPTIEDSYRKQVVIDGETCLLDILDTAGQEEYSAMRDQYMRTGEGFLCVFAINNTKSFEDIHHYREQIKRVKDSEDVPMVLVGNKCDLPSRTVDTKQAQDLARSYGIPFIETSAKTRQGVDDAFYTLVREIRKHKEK
Sequence of KRAS G12D (P62937 whole entry): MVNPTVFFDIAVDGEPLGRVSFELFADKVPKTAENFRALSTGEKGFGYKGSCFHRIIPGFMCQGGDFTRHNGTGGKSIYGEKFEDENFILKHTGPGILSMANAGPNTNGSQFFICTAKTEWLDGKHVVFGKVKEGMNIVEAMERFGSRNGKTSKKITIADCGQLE
[2] abbreviates: Homo sapiens, NCI-H358, H358 KRAS G12C, read-out: pERK EC50.
Where [3] appears, read: H358 KRAS G12C, read-out: pERK EC50.

Sequence of KRAS G12S (P01116-2 other isoform, or with tags, fused parts or gaps G12S): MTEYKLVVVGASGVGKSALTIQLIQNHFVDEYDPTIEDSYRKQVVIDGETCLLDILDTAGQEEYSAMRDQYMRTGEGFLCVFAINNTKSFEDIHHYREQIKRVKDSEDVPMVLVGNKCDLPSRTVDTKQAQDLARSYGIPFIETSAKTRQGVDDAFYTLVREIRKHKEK
Sequence of KRAS G12S (P62937 whole entry, canonical isoform): as the sequence (P62937 whole entry) above

In the case of `C=CC(=O)N1CC[C@H](C(=O)N(C)[C@H](C(=O)N[C@H]2Cc3cccc(c3)-c3ccc4c(c3)c(c(-c3ccccc3CCOC)n4CC)CC(C)(C)COC(=O)[C@@H]3CCCN(N3)C2=O)C(C)C)C1` (atropisomer, axis not shown) [Example A24], the EC50 (usually the midpoint of the concentration-response curve) in experiment [1] (setting [2]) is under 5 µM. In addition, the IC50 (as a rule, the concentration at which inhibition is half-maximal) in the experiment on NCI-H358 (K-Ras G12C) (Homo sapiens, NCI-H358, 120 h) is over 1 µM.

As to `CC#CC(=O)N1CC[C@H](C(=O)N(C)[C@@H](C(=O)N[C@H]2Cc3cc(O)cc(c3)-c3ccc4c(c3)c(c(-c3cccnc3[C@H](C)OC)n4CC)CC(C)(C)COC(=O)[C@@H]3CCCN(N3)C2=O)C(C)C)C1` (atropisomer, axis not shown) [Example A198], the IC50 with NCI-H358 (K-Ras G12C) is over 1 µM.

Consider `CC#CC(=O)N1CC[C@H](C(=O)N(C)[C@H](C(=O)N[C@H]2Cc3cc(O)cc(c3)-c3ccc4c(c3)c(c(-c3cccnc3[C@H](C)OC)n4CC)CC(C)(C)COC(=O)[C@@H]3CCCN(N3)C2=O)C(C)C)C1` (atropisomer, axis not shown; (M)) [Example A145, (2S)-2-{1-[(3S)-1-(but-2-ynoyl)pyrrolidin-3-yl]-N-methylformamido}-N-[(8S,14S,20M)-22-ethyl-4-hydroxy-21-{2-[(1S)-1-methoxyethyl]pyridin-3-yl}-18,18-dimethyl-9,15-dioxo-16-oxa-10,22,28-triazapentacyclo[18.5.2.1^2,^6.1^10,^14.0^23,^27]nonacosa-1(26),2,4,6(29),20,23(27),24-heptaen-8-yl]-3-methylbutanamide], for which, in experiment [1] (setting [3]), the EC50 was under 5 µM.

As for `C=CC(=O)N1CC[C@H](C(=O)N(C)[C@H](C(=O)N[C@H]2Cc3cc(O)cc(c3)-c3ccc4c(c3)c(c(-c3ccccc3CO)n4CC)CC(C)(C)COC(=O)[C@@H]3CCCN(N3)C2=O)C(C)C)C1` [Example A4], the EC50 in experiment [1] (setting [2]) is under 5 µM.

As to `C=CC(=O)N1CC[C@H](C(=O)N(C)[C@H](C(=O)N[C@H]2Cc3cc(O)cc(c3)-c3ccc4c(c3)c(c(-c3ccccc3CCOC)n4C(C)(C)C#N)CC(C)(C)COC(=O)[C@@H]3CCCN(N3)C2=O)C(C)C)C1` [Example A12], in experiment [1] (setting [2]), the half-maximal effective concentration (EC50) was under 5 µM.

`CCn1c(-c2ccccc2CCOC)c2c3cc(ccc31)-c1cc(O)cc(c1)C[C@H](NC(=O)[C@H](C(C)C)N(C)C(=O)[C@H]1CCN(C(=O)/C=C/CN(C)C)C1)C(=O)N1CCC[C@H](N1)C(=O)OCC(C)(C)C2` [Example A15]: the EC50 in experiment [1] (setting [2]) is under 5 µM.

Regarding `C=CC(=O)N1CC[C@H](C(=O)N(C)[C@H](C(=O)N[C@H]2Cc3cc(OC(=O)CCC(=O)O)cc(c3)-c3ccc4c(c3)c(c(-c3ccccc3CCOC)n4CC)CC(C)(C)COC(=O)[C@@H]3CCCN(N3)C2=O)C(C)C)C1` [Example A32], the concentration for a half-maximal effect (EC50) in experiment [1] (setting [2]) is under 5 µM.

Regarding `C=CC(=O)N1CC[C@H](C(=O)N(C)[C@H](C(=O)N[C@H]2Cc3cc(O)cc(c3)-c3ccc4c(c3)c(c(-c3ccccc3CCOC)n4C(C)(C)C#N)CC(C)(C)COC(=O)[C@@H]3CCCN(N3)C2=O)C(C)C)C1` [Example A34], the EC50 in experiment [1] (setting [3]) is under 5 µM.

In the case of `C=CC(=O)N1CCN(C(=O)N(C)[C@H](C(=O)N[C@H]2Cc3cc(O)cc(c3)-c3ccc4c(c3)c(c(-c3ccccc3CN(C)C)n4CC)CC(C)(C)COC(=O)[C@@H]3CCCN(N3)C2=O)C(C)C)CC1` [Example A37], the EC50 in experiment [1] (setting [2]) was under 5 µM.

As to `C=CC(=O)N1CC[C@H](C(=O)N(C)[C@H](C(=O)N[C@H]2Cc3cc(O)cc(c3)-c3ccc4c(c3)c(c(-c3ccncc3CCOC)n4CC)CC(C)(C)COC(=O)[C@@H]3CCCN(N3)C2=O)C(C)C)C1` [Example A48], the EC50 in experiment [1] (setting [2]) was under 5 µM.

For `CCn1c(-c2ccccc2CN(C)C)c2c3cc(ccc31)-c1cc(O)cc(c1)C[C@H](NC(=O)[C@H](C(C)C)N(C)C(=O)c1ccc(NC(=O)/C=C/CN(C)C)cc1)C(=O)N1CCC[C@H](N1)C(=O)OCC(C)(C)C2` [Example A49], the 50% inhibitory concentration (IC50) in the experiment with NCI-H358 (K-Ras G12C) (Homo sapiens, NCI-H358, 120 h) is over 1 µM.

As for `CCn1c(-c2cccnc2COC)c2c3cc(ccc31)-c1cc(O)cc(c1)C[C@H](NC(=O)[C@H](C(C)C)N(C)C(=O)[C@H]1CCN(C(=O)/C=C/CN3CCN(C)CC3)C1)C(=O)N1CCC[C@H](N1)C(=O)OCC(C)(C)C2` [Example A72], the concentration for half-maximal inhibition (IC50) with NCI-H358 (K-Ras G12C) (Homo sapiens, NCI-H358, 120 h) is over 1 µM.

For the compound `C=CC(=O)N1CC[C@H](C(=O)N(C)[C@H](C(=O)N[C@H]2Cc3cc(O)cc(c3)-c3ccc4c(c3)c(c(-c3cccnc3)n4C(C)(C)C#N)CC(C)(C)COC(=O)[C@@H]3CCCN(N3)C2=O)C(C)C)C1` [Example A74], the EC50 in experiment [1] (setting [3]) was under 5 µM.

As for `C=CC(=O)N1CC[C@H](C(=O)N(C)[C@H](C(=O)N[C@H]2Cc3cc(O)cc(c3)-c3ccc4c(c3)c(c(-c3cnccc3[C@H](C)OC)n4CC)CC(C)(C)COC(=O)[C@@H]3CCCN(N3)C2=O)C(C)C)C1` [Example A76], the EC50 in experiment [1] (setting [3]) was under 5 µM.

`C=CC(=O)N1CC[C@H](C(=O)N(C)[C@H](C(=O)N[C@H]2Cc3cc(OC(=O)N(C)CC(=O)O)cc(c3)-c3ccc4c(c3)c(c(-c3ccccc3CCOC)n4CC)CC(C)(C)COC(=O)[C@@H]3CCCN(N3)C2=O)C(C)C)C1` [Example A78]: the EC50 in experiment [1] (Homo sapiens, NCI-H358, read-out: pERK EC50) is under 5 µM.

On to `C=CC(=O)N1CC[C@H](C(=O)N(C)[C@H](C(=O)N[C@H]2Cc3cc(O)cc(c3)-c3ccc4c(c3)c(c(-c3cncc(CCN(C)C)c3)n4CC)CC(C)(C)COC(=O)[C@@H]3CCCN(N3)C2=O)C(C)C)C1` [Example A81], for which, in experiment [1] (setting [2]), the EC50 is under 5 µM.

On to `CCn1c(-c2cnccc2COC)c2c3cc(ccc31)-c1cc(O)cc(c1)C[C@H](NC(=O)[C@H](C(C)C)N(C)C(=O)[C@H]1CCN(C(=O)C#CCN(C)C)C1)C(=O)N1CCC[C@H](N1)C(=O)OCC(C)(C)C2` [Example A88], for which the EC50 in experiment [1] (setting [2]) was under 5 µM.

As for `CCn1c(-c2ccccc2CN(C)C)c2c3cc(ccc31)-c1cc(O)cc(c1)C[C@H](NC(=O)[C@H](C(C)C)N(C)C(=O)c1nc(NC(=O)/C=C/CN(C)C)cs1)C(=O)N1CCC[C@H](N1)C(=O)OCC(C)(C)C2` [Example A90], the IC50 in the experiment with NCI-H358 (K-Ras G12C) (Homo sapiens, NCI-H358, 120 h) was over 1 µM.

As to `C=CC(=O)N1CC[C@H](C(=O)N(C)[C@H](C(=O)NC2C[C@@H]3CN(CCO3)c3ccc4c(c3)c(c(-c3cccnc3COC)n4CC)CC(C)(C)COC(=O)[C@@H]3CCCN(N3)C2=O)C(C)C)C1` (stereo partly drawn) [Example A318], the figures for the IC50 with NCI-H358 (K-Ras G12C), at KRAS G12S and at KRAS G12D were over 1 µM, over 10 µM and over 10 µM, respectively.

Consider `C=CC(=O)N1CC[C@H](C(=O)N(C)[C@H](C(=O)N[C@H]2Cc3cc(O)cc(c3)-c3ccc4c(c3)c(c(-c3ccc(CN5CC[C@@H](O)C5)cc3)n4CC)CC(C)(C)COC(=O)[C@@H]3CCCN(N3)C2=O)C(C)C)C1` [Examples A001], for which the IC50 was 1 to 10 µM at KRAS G12S and over 10 µM at KRAS G12D.

(Values after patent publication US11566007B2, “Ras inhibitors” (Revolution Medicines, Inc., priority 2019, dated 2023).)
